Experimental data reported in patent US6946459B2, “CRYSTALLINE FORMS OF 1S-[1ALPHA(2S*,3R*), 9ALPHA]6, 10-DIOXO-N-(2-ETHOXY-5-OXO-TETRAHYDRO-3-FURANYL)-9[[(1-ISOQUINOLYL) CARBONYL]AMINO]OCTAHYDRO-6H-PIRIDAZINO[1,2-A][1,2]DIAZEPIN-1-CARBOXAMIDE” (Aventis Pharma S. A., priority 1998, dated 2005).
Entries after “also recorded” stand apart in the source; their conditions may differ.

Columns and labels:
[1] = Sample left 7 days in a chamber at 96% relative humidity (32° C.); assay type: physicochemical; conditions: 7 days at 96% relative humidity; for Hygroscopicity (in words): compared with form A
Protocol: The non-hygroscopicity was confirmed by leaving a sample for 7 days in a chamber at 96% relative humidity (at 32° C.) An absorption of water of approximately 0.15% was observed. […] The same situation pertains regarding the amorphous form.

[2] = Hygroscopicity curve (water sorption isotherm), Dynamic Vapor Sorption DVS 1; assay type: physicochemical; parameters: Sorption / Desorption: unit not given here; conditions: for Hygroscopicity (in words): sorption cycle / general statement
Protocol: Hygroscopicity Curve (or Water Sorption Isotherm)
The water sorption isotherms were obtained using a Dynamic Vapor Sorption DVS 1 device (Surface Measurements System Ltd) at a constant temperature and under a more or less hydrated nitrogen atmosphere. The degree of relative humidity (RH) of the atmosphere was modified in stages. The passage from one stage to the next is carried out when the weight of the sample to be analyzed has reached a constant value.

[3] = RH 0.0 %, water sorption isotherm, constant temperature
[4] = RH 0.0 %, water sorption isotherm, constant temperature, water uptake (%)

Compound	Desorption [2, 3]	Sorption [2, 4]	Desorption ([2]; RH 12.0 %)	Sorption ([2]; RH 12.0 %)	Desorption ([2]; RH 21.0 %)	Sorption ([2]; RH 21.0 %)	Desorption ([2]; RH 32.0 %)	Sorption ([2]; RH 32.0 %)	Desorption ([2]; RH 43.0 %)	Sorption ([2]; RH 43.0 %)	Desorption ([2]; RH 51.0 %)	Sorption ([2]; RH 51.0 %)	Desorption ([2]; RH 57.0 %)	Sorption ([2]; RH 57.0 %)	Desorption ([2]; RH 66.0 %)	Sorption ([2]; RH 66.0 %)	Desorption ([2]; RH 75.0 %)	Sorption ([2]; RH 75.0 %)	Desorption ([2]; RH 80.0 %)	Sorption ([2]; RH 80.0 %)	further results
CCO[C@@H]1OC(=O)C[C@@H]1NC(=O)[C@@H]1CCCN2C(=O)CC[C@H](NC(=O)c3nccc4ccccc34)C(=O)N12 [AMORPHOUS, 1S-[1alpha(2R, 3S), 9alpha]6, 10-dioxo-N-(2-ethoxy-5-oxo-tetrahydro-3-furanyl)-9[[(1-isoquinolyl)carbonyl]amino]octahydro-6H-pyridazino[1,2-a][1, 2]diazepin-1-carboxamide, reference compound]	−0.20	0.00	1.43	0.67	2.09	0.97	2.58	1.29	2.94	1.60	3.19	1.83	3.35	2.03	3.61	2.37	3.90	2.90	4.12	3.71	Hygroscopicity (in words) [1]: more hygroscopic; Desorption ([2]; RH 90.0 %): 4.94; Sorption ([2]; RH 90.0 %): 5.11; Desorption ([2]; RH 96.0 %): 5.93; Sorption ([2]; RH 96.0 %): 5.93; Hygroscopicity (in words) ([2]; listed as Compound (I)): hygroscopic
CCO[C@@H]1OC(=O)C[C@@H]1NC(=O)[C@@H]1CCCN2C(=O)CC[C@H](NC(=O)c3nccc4ccccc34)C(=O)N12 [form A]	0.11	0.00	0.12	0.03	0.14	0.05	0.19	0.07	0.21	0.09	0.22	0.11	0.21	0.13	0.21	0.14	0.21	0.14	0.21	0.16	Absorption of water [1]: approximately 0.15%; Desorption ([2]; RH 90.0 %): 0.19; Sorption ([2]; RH 90.0 %): 0.14; Desorption ([2]; RH 96.0 %): 0.06; Sorption ([2]; RH 96.0 %): 0.06; Hygroscopicity (in words) [2]: absence of hygroscopicity; also recorded: not hygroscopic; Water uptake during the sorption cycle ([2]; whole sorption cycle, RH 0 to 96 %): < 0.2%
CCO[C@@H]1OC(=O)C[C@@H]1NC(=O)[C@@H]1CCCN2C(=O)CC[C@H](NC(=O)c3nccc4ccccc34)C(=O)N12 [form B, 1S-[1alpha (2R, 3S), 9alpha]6,10-dioxo-N-(2-ethoxy-5-oxo-tetrahydro-3-furanyl)-9[[(1-isoquinolyl)carbony]amino]octahydro-6H-pyridazino[1,2-a][1,2]diazepin-1-carboxamide]	−0.11	0.00	1.42	1.41	2.33	2.36	3.14	3.23	3.75	3.88	4.13	4.26	4.40	4.53	4.75	4.92	5.08	5.27	5.30	5.45	Absorption of water [1]: 7%; Hygroscopicity (in words) [1]: more hygroscopic; Desorption ([2]; RH 90.0 %): 5.96; Sorption ([2]; RH 90.0 %): 5.93; Desorption ([2]; RH 96.0 %): 6.86; Sorption ([2]; RH 96.0 %): 6.86
